Data: US4670260A, “Antibiotic for animal feeds” (Bayer Aktiengesellschaft, priority 1984, dated 1987)

Test system: Streptomyces strain BA 9
Assay: Growth inhibition of producing strain BA 9 by antibiotics
Format: cell-based, Streptomyces sp.
Settings: ISP medium No. 1+, 28° C., 2 d
Description: The optimum temperature is 28° (ISP medium No. 1^+, 5 d). No growth was observed on ISP medium No. 7 (tyrosine agar). Melanin is formed on ISP medium No. 6. The growth is inhibited by chloramphenicol (10 μg); erythromycin (10 μg), sulphafurazole (100 μg), streptomycin (10 μg), tetracycline (10 μg), chephaloridine (5 μg) fusidic acid (10 μg), lincomycin (10 μg) and novobiocib (5 μg) (ISP medium No. 1^+, 28° C., 2 d). Growth was good (substrate mycelium) on ISP media Nos. 3, 4 and 5, with sparse formation of aerial mycelium on ISP medium Nos. 3 and 5.

## O=C(Cc1cccs1)N[C@@H]1C(=O)N2C(C(=O)[O-])=C(C[n+]3ccccc3)CS[C@H]12 [chephaloridine]
5 μg
  growth inhibition of strain BA 9: inhibited

## O=C(N[C@H](CO)[C@H](O)c1ccc([N+](=O)[O-])cc1)C(Cl)Cl [chloramphenicol]
10 μg
  growth inhibition of strain BA 9: inhibited

## CC[C@H]1OC(=O)[C@H](C)[C@@H](O[C@H]2C[C@@](C)(OC)[C@@H](O)[C@H](C)O2)[C@H](C)[C@@H](O[C@@H]2O[C@H](C)C[C@H](N(C)C)[C@H]2O)[C@](C)(O)C[C@@H](C)C(=O)[C@H](C)[C@@H](O)[C@]1(C)O [erythromycin]
10 μg
  growth inhibition of strain BA 9: inhibited

## CC(=O)O[C@H]1C[C@@]2(C)[C@@H](C[C@@H](O)[C@H]3[C@@]4(C)CC[C@@H](O)[C@@H](C)[C@@H]4CC[C@@]32C)/C1=C(\CCC=C(C)C)C(=O)O [fusidic acid]
10 μg
  growth inhibition of strain BA 9: inhibited

## CCC[C@@H]1C[C@@H](C(=O)N[C@@H]([C@H]2O[C@H](SC)[C@H](O)[C@@H](O)[C@H]2O)[C@@H](C)O)N(C)C1 [lincomycin]
10 μg
  growth inhibition of strain BA 9: inhibited

## CO[C@@H]1[C@@H](OC(N)=O)[C@@H](O)[C@H](Oc2ccc3c(O)c(NC(=O)c4ccc(O)c(CC=C(C)C)c4)c(=O)oc3c2C)OC1(C)C [novobiocib]
5 μg
  growth inhibition of strain BA 9: inhibited

## [H]/N=C(/N)N[C@H]1[C@H](O)[C@@H](O)[C@H](O[C@@H]2O[C@@H](C)[C@](O)(C=O)[C@H]2O[C@@H]2O[C@@H](CO)[C@H](O)[C@@H](O)[C@@H]2NC)[C@@H](N/C(N)=N\[H])[C@@H]1O [streptomycin]
10 μg
  growth inhibition of strain BA 9: inhibited

## Cc1noc(NS(=O)(=O)c2ccc(N)cc2)c1C [sulphafurazole]
100 μg
  growth inhibition of strain BA 9: inhibited

## CN(C)C1C(=O)C(C(N)=O)=C(O)C2(O)C(=O)C3=C(O)c4c(O)cccc4C(C)(O)C3CC12 (stereo not drawn) [tetracycline]
10 μg
  growth inhibition of strain BA 9: inhibited
